Tests used:
C2C12 cells [1] = experiment: Western blot analysis of C2C12 myoblasts (TGF-β1 stimulation, halofuginone treatment); type: cell-based, mouse; settings: 24 hours of 5 ng/ml TGF-β1 stimulation (FIG. 2b)
Protocol: (§1) Specifically, C2C12 cells (CRL-1772) were purchased from the American Type Culture Collection (ATCC) and maintained in DMEM medium (Welgene) containing 10% (v/v) fetal bovine serum (FBS; Gibco) and 1% penicillin-streptomycin (P/S; Gibco) at 37° C. under 5% CO2 conditions. The C2C12 cells were seeded in 6-well plates at a density of 3×10^5 cells per well and allowed to adhere for 24 hours. Subsequently, the medium was replaced with serum-free medium after 24 hours, followed by stimulation with 5 ng/ml rhTGF-β1 (recombinant human TGF-β1; R&D Systems). After stimulation, the cells were treated with various concentrations (0 [control], or 1, 2.5, 5 [low dose], 10 [high dose], 20, 50, 100 ng/ml) of halofuginone (Sigma) in serum-free medium for 24 hours.
Specifically, the lumbar spinal cord or knee joint of the mouse of Example 6 was separated and immediately frozen at −80° C. Each lumbar spinal cord or knee joint was then homogenized and chemically treated to obtain cells. The chemically treated cells, the C2C12 cells of Example 1 or the fibroblasts of Example 5 were dissolved in a RIPA buffer (Thermo, MA, USA) with a protease inhibitor and a phosphatase inhibitor (Roche, IN, USA) and incubated on ice for 30 minutes. After centrifugation of the lysate at 13,000 rpm at 4° C. for 20 min, insoluble substances were removed. Protein concentrations were measured by BCA analysis (Pierce Biotechnology). Equal volumes of cell lysate were loaded onto SDS-PAGE gels for electrophoresis, and transferred onto nitrocellulose membranes (Amersham Protran 0.2 um NC, Amersham Pharmacia Biotech, Piscataway, NJ, USA). The membranes were then blocked with 5% (w/v) skimmilk in 1×TBST for 1 h at room temperature. After blocking, anti-RB-actin antibody (1:5000; Santa Cruz, cat #sc47778), anti-Smad2 antibody (1:1000; Cell Signaling, cat #5339), anti-p-Smad2 antibody (1:1000; Cell Signaling, cat #3108), anti-TGF-β1 antibody (1:1000; Santa Cruz, cat #sc130348), anti-α-SMA antibody (1:10000; abcam cat #ab7817), anti-MyoD antibody (1:1000; cat #sc377460), anti-collagen|antibody (1:1000; abcam cat #ab21286), anti-cleaved caspase-3 antibody (1:1000; Cell Signaling, cat #9661), anti-bax antibody (1:500; Santa Cruz, cat #sc493), anti-bcl2 antibody (1:1000; Novus Biologics, cat #NB100-56098), anti-ChAT antibody (1:1000; Millipore, cat #AB144) were treated and incubated overnight at 4° C. Subsequently, membranes were washed several times with 1×TBST and incubated with horseradish peroxidase-conjugated secondary antibodies (anti-mouse, rabbit or goat, 1:5000; GE Healthcare) in blocking buffer for 1 h at room temperature (RT). The membranes were then washed, briefly incubated with the SuperSignal West Pico Plus Chemical Substructure (Pierce Biotechnology) according to the manufacturer's procedure, and quantified with an image analyzer (Amersham Pharmacia Biotech, Piscataway, NJ, USA). β-actin was used as an internal control group. The concentration measurement of protein intensity was quantified using Image J (National Institutes of Health).
(§2) Specifically, after treating C2C12 cells with TGF-β1 for 24 hours as in Example 1, real-time qRT-PCR was performed in the same manner as in Example 11 to confirm TGF-β1, 2 and 3, α-SMA and MyoD mRNA expression (FIG. 2a), and Western blot analysis was performed in the same manner as in Example 12 to confirm autocrine expression of TGF-β1 and MyoD protein and α-SMA (FIG. 2b).
Specifically, C2C12 cells were treated with halofuginone after TGF-β1 stimulation or no stimulation in the same manner as described in Example 2, and cell viability analysis was performed through CCK-8 analysis (FIGS. 3a and 3b), and Western blot analysis was performed in the same manner as described in Example 12 to confirm autocrine expression of p-Smad2, Smad2, TGF-β1, MyoD, collagen I protein and α-SMA (FIG. 3c). […]

C2C12 cells [2] = experiment: Real-time qRT-PCR analysis of C2C12 myoblasts (TGF-β1 stimulation, halofuginone treatment); type: cell-based, mouse; settings: 24 hours of 5 ng/ml TGF-β1 stimulation, vs control group (FIG. 2a)
Protocol: as §1
Specifically, total RNA was isolated from C2C12 cells in Example 1, fibroblasts in Example 5, and the lumbar spinal cord of mice in Example 6 using the FavorPrep™ Tri-RNA Reagent (Favorgen). The lumbar spinal cord was isolated from the mouse in Example 6 and stored frozen at −80° C. until the experiment. The concentration of total RNA was measured at 260 nm absorbance using a spectrophotometer (NanoDrop Spectrophotometer ND-2000, Thermo Scientific). cDNA was synthesized from 1 μg of total RNA using the ReverTra Ace-α™ (Toyobo) according to the manufacturers protocol. Quantitative RT-PCR was performed using the SYBR Green ExcelTaq™ 2× Fast Q-PCR Master Mix (TQ1200, Smobio) on a thermocycler (CFX Connect Real-Time PCR Detection System, BIO-RAD) with the primers listed in Table 3 below. Fluorescence data were analyzed with Bio-Rad CFX Manager 3.1 software, and control versus relative mRNA expression was calculated by the 2AT) method. Experiments were performed four times on all samples. All primers were designed using Primer3 online software, and GAPDH was used as a control group.
as §2
Specifically, as in Example 1, C2C12 cells were stimulated with TGF-β1 for 24 hours, and then halofuginone was treated for 24 hours, and real-time qRT-PCR was performed in the same manner as in Example 11 to confirm TGF-β1, α-SMA, MyoD, and collagen I (Col-I) mRNA expression (FIG. 4a). In addition, Western blot analysis was performed in the same manner as in Example 12 to confirm TGF-β1, α-SMA, MyoD, and collagen I protein expression (FIG. 4b). In addition, immunocytochemical analysis was performed in the same manner as in Example 3 to confirm α-SMA and MyoD expression (FIG. 4c).

TGF-β1: recombinant human TGF-β1 (R&D Systems) used to stimulate C2C12 myoblasts
TGF-β1 protein expression (C2C12 cells [1]): significantly increased
protein expression of MyoD (C2C12 cells [1]): significantly decreased
α-SMA protein expression (C2C12 cells [1]): significantly increased
mRNA expression of α-SMA (C2C12 cells [2]): significantly increased
mRNA level of MyoD (C2C12 cells [2]): significantly decreased
mRNA level of TGF-β1 (C2C12 cells [2]): significantly increased
mRNA level of TGF-β2 (C2C12 cells [2]): significantly increased
mRNA level of TGF-β3 (C2C12 cells [2]): significantly increased

Reference: patent publication US20240390377A1, “COMPOSITION FOR THE PREVENTION OR TREATMENT OF NEURODEGENERATIVE OR MOTOR NEURON DISEASES COMPRISING HALOFUGINONE AS AN ACTIVE INGREDIENT” (CURAMYS CO., LTD., priority 2022, published 2024)
